Measured values: ChEMBL document CHEMBL4371025, “Discovery and evaluation of novel FAAH inhibitors in neuropathic pain model” (Bioorg Med Chem Lett, 2019)
Activity calls are given as the source filed them. The calls are words filed in the database; no cut-off is given here.

Assays:
Rattus norvegicus [1] = assay: Antihyperalgesic activity in Sprague-Dawley rat model of cisplatin-induced peripheral neuropathy assessed as increase in paw withdrawal latency at 30 mg/kg, po administered once daily via gavage for 6 days measured 24 hrs post last dose by plantar test; format: functional, organism-based
Rattus norvegicus [2] = assay: Antihyperalgesic activity in Sprague-Dawley rat model of cisplatin-induced peripheral neuropathy assessed as increase in paw withdrawal latency at 30 mg/kg, po administered once daily via gavage for 7 days measured 4 hrs post last dose by plantar test; format: functional, organism-based
Rattus norvegicus [3] = assay: Antihyperalgesic activity in Sprague-Dawley rat model of cisplatin-induced peripheral neuropathy assessed as increase in paw withdrawal latency at 3 mg/kg, po administered as single dose via gavage measured 4 hrs post dose by plantar test; format: functional, organism-based
Rattus norvegicus [4] = assay: Antihyperalgesic activity in Sprague-Dawley rat model of cisplatin-induced peripheral neuropathy assessed as increase in paw withdrawal latency at 30 mg/kg, po administered as single dose via gavage measured 4 hrs post dose by plantar test; format: functional, organism-based
[5] = target: T1, Fatty-acid amide hydrolase 1 (Rattus norvegicus) (UniProt P97612); assay: Inhibition of rat FFAH expressed in Escherichia coli at 10 uM using AAMCA as substrate incubated for 1 min measured for 50 mins by fluorescence assay relative to control
T1 sequence (whole entry): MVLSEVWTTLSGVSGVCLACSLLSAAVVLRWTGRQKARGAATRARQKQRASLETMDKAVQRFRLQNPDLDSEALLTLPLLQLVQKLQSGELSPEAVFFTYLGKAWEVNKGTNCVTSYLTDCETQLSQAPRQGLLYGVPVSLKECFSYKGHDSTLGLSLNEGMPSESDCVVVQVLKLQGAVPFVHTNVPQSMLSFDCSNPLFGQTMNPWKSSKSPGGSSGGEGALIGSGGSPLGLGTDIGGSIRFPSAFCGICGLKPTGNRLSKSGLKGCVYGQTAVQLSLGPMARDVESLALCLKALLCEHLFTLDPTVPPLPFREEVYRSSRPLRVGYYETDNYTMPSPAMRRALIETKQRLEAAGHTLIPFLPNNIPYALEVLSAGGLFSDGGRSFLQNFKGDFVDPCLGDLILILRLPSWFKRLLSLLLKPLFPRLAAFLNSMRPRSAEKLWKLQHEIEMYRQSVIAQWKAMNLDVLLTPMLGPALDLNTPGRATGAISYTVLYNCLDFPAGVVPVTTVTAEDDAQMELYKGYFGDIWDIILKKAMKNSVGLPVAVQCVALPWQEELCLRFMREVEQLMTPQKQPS

[6] = Intrinsic metabolic stability in rat liver microsomes assessed as metabolic turnover over per mg protein at 1 uM preincubated for 5 mins followed by NADPH cofactor addition and measured after 30 mins by LC-MS/MS analysis; format: ADME, Microsome; conditions: 0.5 h
[7] = target: T2, Fatty-acid amide hydrolase 1 (Rattus norvegicus, UniProt P97612); assay: Inhibition of rat FFAH expressed in Escherichia coli using AAMCA as substrate incubated for 1 min measured for 50 mins by fluorescence assay
T2 sequence (P97612 whole entry): T1 sequence (whole entry)

[8] = Intrinsic metabolic stability in human liver microsomes assessed as metabolic turnover rate per mg protein at 1 uM preincubated for 5 mins followed by NADPH cofactor addition and measured after 30 mins by LC-MS/MS analysis; format: ADME, Microsome; conditions: 0.5 h
[9] = target: T3, Fatty-acid amide hydrolase 1 (Homo sapiens, UniProt O00519); assay: Inhibition of human transmembrane domain deficient FFAH expressed in Escherichia coli using AAMCA as substrate incubated for 1 min measured for 50 mins by fluorescence assay
T3 sequence (O00519 whole entry): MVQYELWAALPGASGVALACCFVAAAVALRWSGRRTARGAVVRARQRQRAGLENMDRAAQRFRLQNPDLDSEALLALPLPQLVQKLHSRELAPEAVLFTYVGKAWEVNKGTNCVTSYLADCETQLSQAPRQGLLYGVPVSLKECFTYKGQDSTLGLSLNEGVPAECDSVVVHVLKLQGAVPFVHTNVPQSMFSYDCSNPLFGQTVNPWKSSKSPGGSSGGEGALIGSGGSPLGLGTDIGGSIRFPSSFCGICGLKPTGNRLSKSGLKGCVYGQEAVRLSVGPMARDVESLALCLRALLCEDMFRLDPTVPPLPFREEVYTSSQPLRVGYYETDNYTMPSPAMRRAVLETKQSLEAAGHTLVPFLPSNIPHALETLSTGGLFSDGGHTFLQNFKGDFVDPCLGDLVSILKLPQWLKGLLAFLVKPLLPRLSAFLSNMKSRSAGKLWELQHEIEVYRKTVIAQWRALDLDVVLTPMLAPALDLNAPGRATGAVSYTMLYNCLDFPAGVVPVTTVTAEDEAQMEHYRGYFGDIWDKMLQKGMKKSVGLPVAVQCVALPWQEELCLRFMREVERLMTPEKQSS

[10] = Oral bioavailability in Sprague-Dawley rat at 10 mg/kg administered as single dose via gavage by LC-MS/MS analysis; format: ADME, organism-based; conditions: in vivo
[11] = Elimination half life in Sprague-Dawley rat at 1 mg/kg, iv administered as single dose by LC-MS/MS analysis; format: ADME, organism-based; conditions: in vivo, read-out: beta t1/2 (converted)
[12] = AUC (0 to 48 hrs) in plasma of Sprague-Dawley rat at 10 mg/kg, po administered as single dose via gavage by LC-MS/MS analysis; format: ADME, organism-based; design: time < 48 hr, dose 10 mg/kg, route oral
[13] = Clearance in Sprague-Dawley rat at 1 mg/kg, iv administered as single dose by LC-MS/MS analysis; format: ADME, organism-based; conditions: in vivo
[14] = Cmax in Sprague-Dawley rat at 10 mg/kg, po administered as single dose via gavage by LC-MS/MS analysis; format: ADME, organism-based; design: dose 10 mg/kg, route oral; conditions: in vivo
[15] = AUC (0 to 48 hrs) in Sprague-Dawley rat at 1 mg/kg, iv administered as single dose by LC-MS/MS analysis; format: ADME, organism-based; design: dose 1 mg/kg, time < 48 hr, route intravenous; conditions: in vivo
[16] = Volume of distribution at steady state in Sprague-Dawley rat at 1 mg/kg, iv administered as single dose by LC-MS/MS analysis; format: ADME, organism-based; conditions: in vivo, read-out: Vdss
Rattus norvegicus [17] = assay: Antihyperalgesic activity in Sprague-Dawley rat model of cisplatin-induced peripheral neuropathy assessed as increase in paw withdrawal latency at 40 mg/kg, po administered once daily via gavage for 7 days measured 4 hrs post last dose by plantar test; format: functional, organism-based
Rattus norvegicus [18] = assay: Antihyperalgesic activity in Sprague-Dawley rat model of cisplatin-induced peripheral neuropathy assessed as increase in paw withdrawal latency at 10 mg/kg, po administered once daily via gavage for 7 days measured 4 hrs post last dose by plantar test; format: functional, organism-based
[19] = target: T4, Fatty-acid amide hydrolase 1 (Homo sapiens) (UniProt O00519); assay: Reversible inhibition of human transmembrane domain deficient FFAH expressed in Escherichia coli assessed as residual activity at 10 times IC50 using AAMCA as substrate preincubated for 1 hr followed by substrate addition and subsequent 10 fold compound dilution by fluorescence assay relative to control
T4 sequence (whole entry): T3 sequence (O00519 whole entry)

[20] = target: T4, Fatty-acid amide hydrolase 1 (Homo sapiens); assay: Substrate activity at human transmembrane domain deficient FFAH expressed in Escherichia coli assessed as parent compound remaining at 2 times IC50 measured immediately by MS analysis
[21] = target: T4, Fatty-acid amide hydrolase 1 (Homo sapiens); assay: Substrate activity at human transmembrane domain deficient FFAH expressed in Escherichia coli assessed as parent compound remaining at 2 times IC50 after 60 mins by MS analysis
[22] = target: T4, Fatty-acid amide hydrolase 1 (Homo sapiens); assay: Substrate activity at human transmembrane domain deficient FFAH expressed in Escherichia coli assessed as parent compound remaining at 2 times IC50 after 15 mins by MS analysis
[23] = target: T4, Fatty-acid amide hydrolase 1 (Homo sapiens); assay: Substrate activity at human transmembrane domain deficient FFAH expressed in Escherichia coli assessed as parent compound remaining at 2 times IC50 after 30 mins by MS analysis
[24] = target: T4, Fatty-acid amide hydrolase 1 (Homo sapiens); assay: Reversible inhibition of human transmembrane domain deficient FFAH expressed in Escherichia coli assessed as residual activity at 10 times IC50 using AAMCA as substrate preincubated for 1 hr followed by substrate addition by fluorescence assay relative to control
[25] = target: T1, Fatty-acid amide hydrolase 1 (Rattus norvegicus); assay: Inhibition of rat FFAH expressed in Escherichia coli at 100 nM using AAMCA as substrate incubated for 1 min measured for 50 mins by fluorescence assay relative to control

Structure (SMILES)	Drug metabolism [6] [nmol/min/mg]	IC50 [7] [µM]	Drug metabolism [8] [nmol/min/mg]	IC50 [9] [µM]	further results
Nc1ncc(C(=O)NC2CCC(=Cc3cccc(Oc4ccc(C(F)(F)F)cn4)c3)CC2)cn1 (centres undefined)	–	–	–	–	Activity (Rattus norvegicus [1]): Active; Activity (Rattus norvegicus [2]): Active; Activity (Rattus norvegicus [3]): inactive; Activity (Rattus norvegicus [4]): Active
O=C(NC1CCC(=Cc2cccc(Oc3ccc(C(F)(F)F)cn3)c2)CC1)c1cccnc1 (centres undefined)	–	–	–	–	inhibition [5]: 60%
Nc1ncc(C(=O)NC2CCC(=Cc3cccc(Oc4ccc(C(F)(F)F)cn4)c3)CC2)cc1Cl (racemic)	< 0.04	0.052	0.06	0.004	–
O=C(NC1CCC(=Cc2cccc(Oc3ccc(C(F)(F)F)cn3)c2)CC1)c1cc[nH]n1 (racemic)	–	0.266	–	–	–
O=C(NC1CCC(=Cc2cccc(Oc3ccc(C(F)(F)F)cn3)c2)CC1)c1ccc(-n2nccn2)nc1 (racemic)	0.04	–	0.09	–	–
O=C(NC1CCC(=Cc2cccc(Oc3ccc(C(F)(F)F)cn3)c2)CC1)c1ccc(-n2cccn2)nc1 (racemic)	0.09	0.0066	0.11	0.0067	bioavailability [10]: 1.2%; half-life [11]: > 10 h; AUC(0-t) at 48 h [12]: 0.9 µM·h; clearance [13]: 2.4 mL/min/kg; Cmax [14]: 90 nM; AUC(0-t) at 48 h [15]: 8 µM·h; Vd [16]: 4.6 L/kg
Nc1ncc(C(=O)N[C@H]2CC/C(=C/c3cccc(Oc4ccc(C(F)(F)F)cn4)c3)CC2)cn1 (centres undefined)	–	1.5	–	0.083	–
COc1cccc([C@@]2(O)CCCC[C@@H]2CN(C)C)c1	–	–	–	–	Activity (Rattus norvegicus [17]): Active
O=C(N[C@H]1CC/C(=C/c2cccc(Oc3ccc(C(F)(F)F)cn3)c2)CC1)c1cccnc1 (centres undefined)	–	–	–	0.414	–
O=C(NC1CCC(=Cc2cccc(Oc3ccc(C(F)(F)F)cn3)c2)CC1)c1ccc(Cl)nc1 (racemic)	0.04	0.0807	0.06	0.0051	–
Cc1cc(C(=O)N[C@H]2CC/C(=C/c3cccc(Oc4ccc(C(F)(F)F)cn4)c3)CC2)cnc1N (centres undefined)	–	2.3	–	0.227	–
O=C(Nc1cccnn1)N1CCC(=Cc2cccc(Oc3ccc(C(F)(F)F)cn3)c2)CC1	–	0.0057	–	0.0018	Activity (Rattus norvegicus [18]): Active
O=C(NC1CCC(=Cc2cccc(Oc3ccc(C(F)(F)F)cn3)c2)CC1)c1cccnc1 (racemic)	0.06	–	0.06	0.0022	–
O=C(CCCCCCc1ccccc1)c1ncc(-c2ccccn2)o1	–	–	–	–	Activity [19]: 30%
Cc1cc(C(=O)NC2CCC(=Cc3cccc(Oc4ccc(C(F)(F)F)cn4)c3)CC2)cnc1N (racemic)	0.04	–	0.09	–	–
O=C(NC1CCC(=Cc2cccc(Oc3ccc(C(F)(F)F)cn3)c2)CC1)c1cccnn1 (racemic)	–	–	–	0.009	–
O=C(Nc1cccnc1)N1CCC(Cc2cccc(Oc3ccc(C(F)(F)F)cn3)c2)CC1	–	0.0115	–	0.0026	Activity [20]: 100%; Activity [21]: 40.4%; Activity [22]: 77.2%; Activity [23]: 54.4%; Activity [24]: 20%; Activity [19]: inactive
O=C(NC1CCC(=Cc2cccc(Oc3ccc(C(F)(F)F)cn3)c2)CC1)c1cn[nH]c1 (racemic)	< 0.04	0.0646	0.04	–	–
Nc1ccc(C(=O)N[C@H]2CC/C(=C/c3cccc(Oc4ccc(C(F)(F)F)cn4)c3)CC2)cn1 (centres undefined)	–	–	–	0.45	–
Nc1ccc(C(=O)NC2CCC(=Cc3cccc(Oc4ccc(C(F)(F)F)cn4)c3)CC2)cn1 (racemic)	0.05	0.0313	0.07	–	–
Nc1ccc(C(=O)NC2CCC(=Cc3cccc(Oc4ccc(C(F)(F)F)cn4)c3)CC2)cn1 (centres undefined)	–	–	–	–	inhibition [5]: 70%
O=C(NC1CCC(=Cc2cccc(Oc3ccc(C(F)(F)F)cn3)c2)CC1)c1cncnc1 (racemic)	0.07	–	< 0.04	–	–
Nc1ncc(C(=O)NC2CCC(=Cc3cccc(Oc4ccc(C(F)(F)F)cn4)c3)CC2)cn1 (racemic)	0.02	–	0.03	0.002	–
O=C(NC1CCC(=Cc2cccc(Oc3ccc(C(F)(F)F)cn3)c2)CC1)c1ccncc1 (racemic)	–	–	–	–	inhibition [25]: 15%
Cc1cc(C(=O)NC2CCC(=Cc3cccc(Oc4ccc(C(F)(F)F)cn4)c3)CC2)cnc1N (centres undefined)	–	–	–	–	Activity (Rattus norvegicus [1]): Active; Activity (Rattus norvegicus [2]): Active; Activity (Rattus norvegicus [3]): inactive; Activity (Rattus norvegicus [4]): Active
